Test results: patent US20240270762A1, “PENICILLIN-BINDING PROTEIN INHIBITORS” (priority 2021, published 2024)
≈ marks a conversion by molar mass, not a printed value.

Key:
[1] = target: T1, A. baumannii PBP1a (Acinetobacter baumannii, UniProt A0ABX6CK30); experiment: Bocillin-FL competition binding via gel filtration, A. baumannii PBP1a; details: competition binding assay using Bocillin-FL via gel filtration; read-out: A. baumannii PBP1a Potency
T1 sequence (A0ABX6CK30 1-851): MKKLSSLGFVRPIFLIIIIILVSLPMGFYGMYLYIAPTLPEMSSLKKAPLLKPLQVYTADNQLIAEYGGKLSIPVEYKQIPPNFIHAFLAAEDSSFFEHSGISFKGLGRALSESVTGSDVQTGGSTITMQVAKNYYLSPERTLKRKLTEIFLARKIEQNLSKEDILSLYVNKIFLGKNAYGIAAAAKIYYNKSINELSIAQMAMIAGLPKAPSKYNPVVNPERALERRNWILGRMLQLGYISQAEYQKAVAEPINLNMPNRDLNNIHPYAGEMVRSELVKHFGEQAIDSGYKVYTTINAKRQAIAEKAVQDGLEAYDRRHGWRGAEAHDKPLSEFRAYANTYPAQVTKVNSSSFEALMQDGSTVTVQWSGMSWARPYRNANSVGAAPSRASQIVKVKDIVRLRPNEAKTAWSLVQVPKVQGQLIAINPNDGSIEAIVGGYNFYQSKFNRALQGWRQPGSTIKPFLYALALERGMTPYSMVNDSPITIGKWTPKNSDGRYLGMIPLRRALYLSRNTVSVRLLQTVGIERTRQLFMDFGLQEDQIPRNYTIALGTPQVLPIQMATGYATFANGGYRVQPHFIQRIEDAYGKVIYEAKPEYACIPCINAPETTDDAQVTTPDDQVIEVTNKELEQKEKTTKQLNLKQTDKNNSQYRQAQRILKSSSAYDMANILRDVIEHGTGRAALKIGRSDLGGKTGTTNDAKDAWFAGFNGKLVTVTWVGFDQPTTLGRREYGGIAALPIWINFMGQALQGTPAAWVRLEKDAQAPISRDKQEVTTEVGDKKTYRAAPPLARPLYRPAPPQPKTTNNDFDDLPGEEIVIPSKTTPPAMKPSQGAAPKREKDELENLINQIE
Procedure, shortened: (§1)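 Enzyme was pre-incubated with rising inhibitor concentrations, then Bocillin-FL was added and incubated 15 minutes more. Bound probe was separated by gel filtration and fluorescence read. EC50 came from fitting fraction of PBP labelled versus inhibitor concentration to a Hill equation with ymin, ymax and n.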

[2] = target: A. baumannii PBP2 (Acinetobacter baumannii, UniProt D0C8Z9); experiment: Bocillin-FL competition binding via gel filtration, A. baumannii PBP2
Procedure, shortened: as §1

[3] = test system: A. baumannii ATCC 17978; experiment: microbe, parasite or virus in culture; assay type: cell-based; details: Acinetobacter baumannii, ATCC17978, read-out: Minimum inhibitory concentration (MIC), A. baumannii ATCC 17978
[4] = test system: A. baumannii CDC-0033; experiment: microbe, parasite or virus in culture; assay type: cell-based; details: Acinetobacter baumannii, CDC0033, read-out: Minimum inhibitory concentration (MIC), A. baumannii CDC-0033
[5] = test system: A. baumannii CDC-0045; experiment: microbe, parasite or virus in culture; assay type: cell-based; details: Acinetobacter baumannii, CDC0045, read-out: Minimum inhibitory concentration (MIC), A. baumannii CDC-0045
[6] = test system: B. humptydooensis ATCC BAA-2767; experiment: microbe, parasite or virus in culture; assay type: cell-based; details: Burkholderia humptydooensis, ATCCBAA2767, read-out: Minimum inhibitory concentration (MIC), B. humptydooensis ATCC BAA-2767
[7] = test system: P. aeruginosa ATCC 27853; experiment: microbe, parasite or virus in culture; assay type: cell-based; details: Pseudomonas aeruginosa, ATCC27853, read-out: Minimum inhibitory concentration, P. aeruginosa ATCC 27853
[8] = test system: A. baumannii ATCC 19606; experiment: microbe, parasite or virus in culture; assay type: cell-based; details: Acinetobacter baumannii, ATCC19606, read-out: Minimum inhibitory concentration (MIC), A. baumannii ATCC 19606
[9] = test system: P. aeruginosa ATCC 35151; experiment: microbe, parasite or virus in culture; assay type: cell-based; details: Pseudomonas aeruginosa, ATCC35151, read-out: Minimum inhibitory concentration, P. aeruginosa ATCC 35151
[10] = test system: A. baumannii 1258916; experiment: microbe, parasite or virus in culture; assay type: cell-based, Acinetobacter baumannii; details: Acinetobacter baumannii, 1258916, read-out: Minimum inhibitory concentration (MIC), A. baumannii 1258916
[11] = test system: A. baumannii CDC-0036; experiment: microbe, parasite or virus in culture; assay type: cell-based; details: Acinetobacter baumannii, CDC0036, read-out: Minimum inhibitory concentration (MIC), A. baumannii CDC-0036

Sequence of A. baumannii PBP2 (D0C8Z9 whole entry): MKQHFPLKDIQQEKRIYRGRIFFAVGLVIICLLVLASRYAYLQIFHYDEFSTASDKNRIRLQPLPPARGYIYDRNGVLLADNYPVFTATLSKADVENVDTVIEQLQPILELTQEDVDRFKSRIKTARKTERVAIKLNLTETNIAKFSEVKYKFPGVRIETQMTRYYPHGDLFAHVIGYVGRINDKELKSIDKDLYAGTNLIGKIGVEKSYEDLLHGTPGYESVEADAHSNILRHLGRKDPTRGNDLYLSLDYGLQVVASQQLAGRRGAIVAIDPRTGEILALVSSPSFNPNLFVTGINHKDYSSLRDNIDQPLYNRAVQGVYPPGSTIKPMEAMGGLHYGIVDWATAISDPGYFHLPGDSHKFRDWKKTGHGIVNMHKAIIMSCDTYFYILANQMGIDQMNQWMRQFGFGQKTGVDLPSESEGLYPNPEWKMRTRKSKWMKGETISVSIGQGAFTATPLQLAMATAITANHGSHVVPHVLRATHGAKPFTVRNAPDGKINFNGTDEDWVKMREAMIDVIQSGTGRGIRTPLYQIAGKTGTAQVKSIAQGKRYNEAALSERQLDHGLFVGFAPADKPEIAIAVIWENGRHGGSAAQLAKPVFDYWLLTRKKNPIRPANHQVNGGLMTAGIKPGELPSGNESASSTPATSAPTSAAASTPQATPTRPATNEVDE

Row | SMILES | EC50 [1] [µM] | EC50 [2] [µM] | MIC [3] [µg/mL] | MIC [4] [µg/mL] | MIC [5] [µg/mL] | MIC [6] [µg/mL] | MIC [7] [µg/mL] | MIC [8] [µg/mL] | MIC [9] [µg/mL] | MIC [10] [µg/mL] | MIC [11] [µg/mL]
1 | O=C(O)c1c(F)ccc2c1OB(O)[C@@H](NC(=O)[C@H](NC(=O)N1CCN(C3CCN(C(=O)Nc4cc(F)c(O)c(O)c4Cl)CC3)C1=O)c1ccc(P(=O)(O)O)cc1)C2 (single isomer, unassigned) [Example 500] | < 10 | < 10 | < 1 | < 1 | < 1 | < 1 | < 1 | < 1 | < 1 | < 1 | < 1
2 | O=C(O)c1c(F)ccc2c1OB(O)[C@@H](NC(=O)[C@H](NC(=O)N1CCN(C3CCN(C(=O)Nc4cc(F)c(F)c(O)c4F)CC3)C(=O)C1=O)c1cc(F)c(O)c(O)c1Cl)C2 [Example 491, (R)-3-((R)-2-(2-chloro-5-fluoro-3,4-dihydroxyphenyl)-2-(2,3-dioxo-4-(1-((2,4,5-trifluoro-3-hydroxyphenyl)carbamoyl)piperidin-4-yl)piperazine-1-carboxamido)acetamido)-7-fluoro-2-hydroxy-3,4-dihydro-2H-benzo[e][1,2]oxaborinine-8-carboxylic acid] | < 10 | < 10 | < 1 | 2 to 4 (≈ 2.34 to 4.68 µM) | < 1 | 8 to 16 (≈ 9.36 to 18.7 µM) | 2 to 4 (≈ 2.34 to 4.68 µM) | < 1 | < 1 | < 1 | 2 to 4 (≈ 2.34 to 4.68 µM)
3 | O=C(O)c1c(F)ccc2c1OB(O)[C@@H](NC(=O)C(NC(=O)N1CCN(C3CCN(C(=O)Nc4cc(O)c(F)c(F)c4)CC3)C(=O)C1=O)c1cc(F)c(O)c(O)c1Cl)C2 (stereo partly drawn) [Example 488, (3R)-3-(2-(2-chloro-5-fluoro-3,4-dihydroxyphenyl)-2-(4-(1-((3,4-difluoro-5-hydroxyphenyl)carbamoyl)piperidin-4-yl)-2,3-dioxopiperazine-1-carboxamido)acetamido)-7-fluoro-2-hydroxy-3,4-dihydro-2H-benzo[e][1,2]oxaborinine-8-carboxylic acid] | < 10 | 10 to 50 | < 1 | 2 to 4 (≈ 2.39 to 4.78 µM) | < 1 | > 128 | 2 to 4 (≈ 2.39 to 4.78 µM) | < 1 | < 1 | < 1 | 2 to 4 (≈ 2.39 to 4.78 µM)
4 | O=C(O)c1c(F)ccc2c1OB(O)[C@@H](NC(=O)[C@H](NC(=O)N1CCN(C3CCN(C(=O)Nc4ccc(O)c(O)c4Cl)CC3)C1=O)c1ccc(P(=O)(O)O)cc1)C2 (single isomer, unassigned) [Example 497] | < 10 | < 10 | < 1 | < 1 | < 1 | < 1 | 2 to 4 (≈ 2.44 to 4.88 µM) | < 1 | < 1 | < 1 | < 1
5 | O=C(O)c1c(F)ccc2c1OB(O)[C@@H](NC(=O)C(NC(=O)N1CCN(C3CCN(C(=O)Nc4c(F)ccc(O)c4F)CC3)C(=O)C1=O)c1cc(F)c(O)c(O)c1Cl)C2 (stereo partly drawn) [Example 487, (3R)-3-(2-(2-chloro-5-fluoro-3,4-dihydroxyphenyl)-2-(4-(1-((2,6-difluoro-3-hydroxyphenyl)carbamoyl)piperidin-4-yl)-2,3-dioxopiperazine-1-carboxamido)acetamido)-7-fluoro-2-hydroxy-3,4-dihydro-2H-benzo[e][1,2]oxaborinine-8-carboxylic acid] | 10 to 50 | < 10 | < 1 | 2 to 4 (≈ 2.39 to 4.78 µM) | < 1 | 2 to 4 (≈ 2.39 to 4.78 µM) | < 1 | < 1 | < 1 | < 1 | < 1
